# Tests used:
# IL-17A/A = molecular target: T1, IL-17A/A (Homo sapiens, UniProt Q16552); test: IL-17A/A HEK-Blue cell assay (SEAP reporter); assay type: cell-based; settings: HEK-Blue IL-17A reporter cells, IL17A/A 5 ng/mL, 20 hours, SEAP read at A630; read-out: HEK-Blue IL17AA (IC50 for IL-17A/A inhibition)
# T1 construct: purchased Genscript Z03228
# T1 sequence (Q16552 24-155): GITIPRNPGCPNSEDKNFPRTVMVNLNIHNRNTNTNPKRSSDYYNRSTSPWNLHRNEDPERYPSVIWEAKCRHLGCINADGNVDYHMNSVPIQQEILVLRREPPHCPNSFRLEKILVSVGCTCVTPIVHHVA
# IL-17A/F = molecular target: T2, IL-17A/F (Homo sapiens, UniProt Q16552+Q96PD4); test: IL-17A/F HEK-Blue cell assay (SEAP reporter); assay type: cell-based; settings: HEK-Blue IL-17A reporter cells, IL17A/F 5 ng/mL, 20 hours, SEAP read at A630; read-out: HEK-Blue IL17AF (IC50 for IL-17A/F inhibition)
# T2 construct: purchased R&D Systems
# T2 sequence (Q16552 24-155): T1 sequence (Q16552 24-155)
# T2 sequence (Q96PD4 31-163): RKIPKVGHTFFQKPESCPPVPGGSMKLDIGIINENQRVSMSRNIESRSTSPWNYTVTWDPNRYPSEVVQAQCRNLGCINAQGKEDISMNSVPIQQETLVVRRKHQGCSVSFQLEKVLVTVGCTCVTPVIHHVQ
Compound,IC50 (IL-17A/A) [nM],IC50 (IL-17A/F) [nM]
"CCn1nccc1C(=O)N[C@H](c1cn2nc(C[C@H]3C[C@@H](C(F)(F)F)CNC3=O)c(C3(C)CCOC3)nc2n1)C1CCC(F)(F)CC1 (single isomer, unassigned) [Compound 178]",< 100,> 1000
"CCn1nccc1C(=O)N[C@H](c1cn2nc(C[C@H]3C[C@@H](C(F)(F)F)CNC3=O)c(C3CCOC3)nc2n1)[C@H]1CCCC(F)(F)C1 (single isomer, unassigned) [Compound 203]",< 100,< 100
"CCn1nccc1C(=O)N[C@H](c1cn2nc(CC3C[C@@H](C(F)(F)F)CNC3=O)c(N3CCO[C@@H](C)C3)nc2n1)[C@@H]1CCCC(F)(F)C1 (single isomer, unassigned) [Compound 207]",< 100,100 to 1000
"CCn1nccc1C(=O)N[C@H](c1cn2nc(CC3C[C@@H](C(F)(F)F)CNC3=O)c(N3CCO[C@@H](C)C3)nc2n1)[C@@H]1CCCC(F)(F)C1 (single isomer, unassigned) [Compound 208]",< 100,100 to 1000
"O=C(N[C@H](c1cn2nc(C[C@H]3C[C@@H](C(F)(F)F)CNC3=O)c(C3CCCOC3)nc2n1)[C@@H]1CCCC(F)(F)C1)c1nonc1C1CC1 (single isomer, unassigned) [Compound 209]",< 100,> 1000
"O=C(N[C@H](c1cn2nc(C[C@H]3C[C@@H](C(F)(F)F)CNC3=O)c(C3CCCOC3)nc2n1)[C@@H]1CCCC(F)(F)C1)c1nonc1C1CC1 (single isomer, unassigned) [Compound 210]",< 100,100 to 1000
"CCn1nccc1C(=O)N[C@@H](CCC(C)(C)C(F)(F)F)c1cn2nc(C[C@H]3C[C@@H](C(F)(F)F)CNC3=O)c(C3CCOCC3)nc2n1 (single isomer, unassigned) [Compound 217]",< 100,> 1000
"CCn1nccc1C(=O)N[C@H](c1cn2nc(C[C@H]3C[C@@H](C(F)(F)F)CNC3=O)c(C[C@@H]3CCOC3)nc2n1)C1CCC(F)(F)CC1 (single isomer, unassigned) [Compound 224]",< 100,100 to 1000
"CCn1nccc1C(=O)N[C@H](c1cn2nc(C[C@H]3C[C@@H](C(F)(F)F)CNC3=O)c(C[C@H]3CCOC3)nc2n1)C1CCC(F)(F)CC1 (single isomer, unassigned) [Compound 225]",< 100,100 to 1000
"CCn1nccc1C(=O)N[C@H](c1cn2nc(C[C@H]3C[C@@H](C(F)(F)F)CNC3=O)c([C@@H](C)N3CCOCC3)nc2n1)C1CCC(F)(F)CC1 (single isomer, unassigned) [Compound 227]",< 100,100 to 1000
"CCn1nccc1C(=O)N[C@H](c1cn2nc(C[C@H]3C[C@@H](C(F)(F)F)CNC3=O)c(CN3CCOC[C@H]3C)nc2n1)C1CCC(F)(F)CC1 (single isomer, unassigned) [Compound 231]",< 100,100 to 1000
"CCn1nccc1C(=O)N[C@H](c1cn2nc(C[C@H]3C[C@@H](C(F)(F)F)CNC3=O)c(CN3CCOCC3C)nc2n1)C1CCC(F)(F)CC1 (single isomer, unassigned) [Compound 232]",< 100,100 to 1000
"CCn1nccc1C(=O)N[C@H](c1cn2nc(C[C@H]3C[C@@H](C(F)(F)F)CNC3=O)c([C@H](C)C3CCOCC3)nc2n1)C1CCC(F)(F)CC1 (single isomer, unassigned) [Compound 251]",< 100,> 1000
"CCn1nccc1C(=O)N[C@H](c1cn2nc(C[C@H]3C[C@@H](C(F)(F)F)CNC3=O)c([C@@H](C)C3CCOCC3)nc2n1)C1CCC(F)(F)CC1 (single isomer, unassigned) [Compound 252]",< 100,100 to 1000
"CCn1nccc1C(=O)N[C@H](c1cn2nc(C[C@H]3C[C@@H](C(F)(F)F)CNC3=O)c([C@@H]3CCC(C)(C)OC3)nc2n1)C1CCC(F)(F)CC1 (single isomer, unassigned) [Compound 256]",< 100,100 to 1000
"CCn1nccc1C(=O)N[C@H](c1cn2nc(C[C@H]3C[C@@H](C(F)(F)F)CNC3=O)c([C@H]3COCCC3(F)F)nc2n1)C1CCC(F)(F)CC1 (single isomer, unassigned) [Compound 257]",< 100,100 to 1000
"CCn1nccc1C(=O)N[C@H](c1cn2nc(C[C@H]3C[C@@H](C(F)(F)F)CNC3=O)c([C@H]3CCC(C)(C)OC3)nc2n1)C1CCC(F)(F)CC1 (single isomer, unassigned) [Compound 258]",< 100,100 to 1000
"CCn1nccc1C(=O)N[C@H](c1cn2nc(C[C@H]3C[C@@H](C(F)(F)F)CNC3=O)c(C3COCCC3(F)F)nc2n1)C1CCC(F)(F)CC1 (single isomer, unassigned) [Compound 259]",< 100,< 100

Compound,IC50 (IL-17A/A) [nM],IC50 (IL-17A/F) [nM]
"Cn1nccc1C(=O)N[C@H](c1cn2nc(C[C@H]3C[C@@H](C(F)(F)F)CNC3=O)c([C@H]3CCCOC3)nc2n1)C1CCC(F)(F)CC1 (single isomer, unassigned) [Compound 263]",< 100,> 1000
"Cn1nccc1C(=O)N[C@H](c1cn2nc(C[C@H]3C[C@@H](C(F)(F)F)CNC3=O)c([C@@H]3CCCOC3)nc2n1)C1CCC(F)(F)CC1 (single isomer, unassigned) [Compound 264]",< 100,100 to 1000
"Cc1nonc1C(=O)N[C@H](c1cn2nc(C[C@H]3C[C@@H](C(F)(F)F)CNC3=O)c(C3CCCOC3)nc2n1)C1CCC(F)(F)CC1 (single isomer, unassigned) [Compound 265]",< 100,> 1000
"Cc1nonc1C(=O)N[C@H](c1cn2nc(C[C@H]3C[C@@H](C(F)(F)F)CNC3=O)c([C@@H]3CCCOC3)nc2n1)C1CCC(F)(F)CC1 (single isomer, unassigned) [Compound 266]",< 100,> 1000
"Cn1nccc1C(=O)N[C@H](c1cn2nc(C[C@H]3C[C@@H](C(F)(F)F)CNC3=O)c([C@H]3CCCOC3)nc2n1)[C@H]1CCCC(F)(F)C1 (single isomer, unassigned) [Compound 267]",< 100,100 to 1000
"Cn1nccc1C(=O)N[C@H](c1cn2nc(C[C@H]3C[C@@H](C(F)(F)F)CNC3=O)c([C@@H]3CCCOC3)nc2n1)[C@H]1CCCC(F)(F)C1 (single isomer, unassigned) [Compound 268]",< 100,100 to 1000
"CCn1nccc1C(=O)N[C@H](c1cn2nc(C[C@H]3C[C@@H](C(F)(F)F)CNC3=O)c(C3CCCC(F)(F)C3)nc2n1)C1CCC(F)(F)CC1 (single isomer, unassigned) [Compound 271]",< 100,100 to 1000
"CCn1nccc1C(=O)N[C@H](c1cn2nc(C[C@H]3C[C@@H](C(F)(F)F)CNC3=O)c([C@@H]3CCCC(F)(F)C3)nc2n1)C1CCC(F)(F)CC1 (single isomer, unassigned) [Compound 272]",< 100,< 100
"Cc1nonc1C(=O)N[C@H](c1cn2nc(C[C@H]3C[C@@H](C(F)(F)F)CNC3=O)c([C@H]3CCOC3)nc2n1)C1CCC(F)(F)CC1 (single isomer, unassigned) [Compound 274]",< 100,> 1000
"Cc1nonc1C(=O)N[C@H](c1cn2nc(C[C@H]3C[C@@H](C(F)(F)F)CNC3=O)c([C@@H]3CCOC3)nc2n1)C1CCC(F)(F)CC1 (single isomer, unassigned) [Compound 275]",< 100,> 1000
"CCn1nccc1C(=O)N[C@H](c1cn2nc(C[C@H]3C[C@@H](C(F)(F)F)CNC3=O)c(C3CCN(C)C3)nc2n1)C1CCC(F)(F)CC1 (single isomer, unassigned) [Compound 285]",100 to 1000,> 1000
"CCn1nccc1C(=O)N[C@H](c1cn2nc(C[C@H]3C[C@@H](C(F)(F)F)CNC3=O)c(C3CCOCC3)nc2n1)[C@@H]1CC[C@@H]2C[C@@H]2CC1 (single isomer, unassigned) [Compound 293]",< 100,< 100
"CCn1nccc1C(=O)N[C@H](c1cn2nc(C[C@H]3C[C@@H](C(F)(F)F)CNC3=O)c(C3CCOCC3)nc2n1)C1CC[C@@H]2C[C@@H]2CC1 (single isomer, unassigned) [Compound 294]",< 100,< 100
"CCn1nccc1C(=O)N[C@H](c1cn2nc(C[C@H]3C[C@@H](C(F)(F)F)CNC3=O)c([C@H]3CCOC3)nc2n1)C(C1CC1)C1CC1 (single isomer, unassigned) [Compound 321]",< 100,100 to 1000
"CCn1nccc1C(=O)N[C@H](c1cn2nc(C[C@H]3C[C@@H](C(F)(F)F)CNC3=O)c([C@@H]3CCOC3)nc2n1)C(C1CC1)C1CC1 (single isomer, unassigned) [Compound 322]",< 100,100 to 1000
"CCn1nccc1C(=O)N[C@H](c1cn2nc(C[C@H]3C[C@@H](C(F)(F)F)CNC3=O)c([C@@H]3CCCCN3)nc2n1)C1CCC(F)(F)CC1 (single isomer, unassigned) [Compound 324]",100 to 1000,> 1000
"CCn1nccc1C(=O)N[C@H](c1cn2nc(C[C@H]3C[C@@H](C(F)(F)F)CNC3=O)c([C@H]3CCCCN3)nc2n1)C1CCC(F)(F)CC1 (single isomer, unassigned) [Compound 325]",100 to 1000,> 1000
"CCn1nccc1C(=O)N[C@H](c1cn2nc(C[C@H]3C[C@@H](C(F)(F)F)CNC3=O)c([C@@H]3CN(C)CCO3)nc2n1)C1CCC(F)(F)CC1 (single isomer, unassigned) [Compound 376]",< 100,> 1000
